Experimental data published in US20080176255A1, “Mold detection composition and methods” (priority 2007, published 2008).
Counter-ions that a name gives are not always drawn.

Assay: Solubility in distilled water
Format: physicochemical
Text: In one embodiment, the compositions described herein may further comprise a solvent; a gelling agent; and a diluent.

solubility (at 25° C.): 25 mg/mL | solubility (at 95° C.): 300 mg/mL
Structure (SMILES): O=S(=O)(O)c1ccccc1C=Cc1ccc(-c2ccc(C=Cc3ccccc3S(=O)(=O)O)cc2)cc1 [BBD, 2,2′-([1,1′-Biphenyl]-4,4′-diyldi-2,1-ethenediyl)bis-benzenesulfonic acid disodium salt]
